The values below come from paper PMC10220285, “Development of an assay pipeline for the discovery of novel small molecule inhibitors of human glutathione peroxidases GPX1 and GPX4” (Redox Biology, 2023).

The structures appear in SMILES notation.

In this assay the target is T1, GPX4 (Homo sapiens, UniProt P36969).
T1 construct: made in house; host or cells: E. coli
T1 sequence (P36969 1-170 isoform P36969-2): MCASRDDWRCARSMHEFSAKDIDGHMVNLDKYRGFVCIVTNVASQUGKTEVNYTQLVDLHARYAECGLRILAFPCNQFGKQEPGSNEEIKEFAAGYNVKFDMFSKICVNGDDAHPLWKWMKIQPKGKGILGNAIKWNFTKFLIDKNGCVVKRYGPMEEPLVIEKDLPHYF
As to the kind of experiment: GR-coupled GPX4 activity assay (NADPH fluorescence, CHP substrate). The assay is classed as biochemical. The note with it: Fig. 9 pan-selenoprotein inhibitors.

`O=S(=O)(O)CC(S)CS` (centres unmarked) [2,3-dimercaptopropanesulfonate]: the “inhibition of GPX4” value was “inhibited all tested selenoproteins”. Besides, the “inhibition of GPX4” value (listed as 2,3-dimercaptopropanesulfonic acid) was “inhibited all selenoproteins”.
